Measurements: patent US5580870A, “Quinazoline derivatives” (Zeneca Limited, priority 1992, dated 1996)
Like-named read-outs stand apart in the source and are kept apart here.

Key:
KB cells = experiment: Test (b): in vitro inhibition of growth of human naso-pharyngeal cancer cell line KB (EGF, MTT); format: cell-based; conditions: 72 h, read-out: IC50 in Test (b), inhibition of KB cell growth
Method: (b) An in vitro assay which determines the ability of a test compound to inhibit the growth of the human naso-pharyngeal cancer cell line KB.
KB cells were seeded into wells at a density of 1×10^4 -1.5×10^4 cells per well and grown for 24 hours in DMEM supplemented with 5% FCS (charcoal-stripped). Cell growth was determined after incubation for 3 days by the extent of metabolism of MTT tetrazolium dye to furnish a bluish colour. Cell growth was then determined in the presence of EGF (10 ng/ml) or in the presence of EGF (10 ng/ml) and a test compound at a range of concentrations. An IC50 value could then be calculated.

liver hepatocyte growth = experiment: Test (c): in vivo inhibition of TGFα-stimulated liver hepatocyte growth in male rats (BrdU uptake); set-up: species or system rat; conditions: for ED50: Rattus norvegicus, Hepatocyte, read-out: ED50 in Test (c), inhibition of liver hepatocyte proliferation
Method: (c) An in vivo assay in a group of male rats which determines the ability of a test compound (usually administered orally as a ball-milled suspension in 0.5% polysorbate) to inhibit the stimulation of liver hepatocyte growth caused by the administration of the growth factor TGFα (400 μg/kg subcutaneously, usually dosed twice, 3 and 7 hours respectively after the administration of the test compound).
Cell-growth in the control and test animals is determined as follows:
On the morning of the day after the dosing of the test compound (or 0.5% polysorbate in the control group), the animals are dosed with bromodeoxyuridine (BrdU; 100 mg/kg intraperitoneally). The animals are killed four hours later and the livers are excised. […] Further tests were carried out using a range of doses of the test compounds to allow the calculation of an approximate ED50 value for the inhibition of liver hepatocyte proliferation as determined by inhibition of the uptake of BrdU.

receptor tyrosine kinase = molecular target: T1, receptor tyrosine kinase (Homo sapiens, UniProt P00533); experiment: Test (a): in vitro receptor tyrosine kinase inhibition (enzyme from A-431 cells, 32P-ATP/peptide phosphorylation, with EGF); format: biochemical
T1 construct: The supernatant, containing solubilised receptor tyrosine kinase, was stored in liquid nitrogen; endogenous in cells; host or cells: A-431 cells (human vulval carcinoma), solubilised membrane fraction
T1 sequence (P00533 25-1210): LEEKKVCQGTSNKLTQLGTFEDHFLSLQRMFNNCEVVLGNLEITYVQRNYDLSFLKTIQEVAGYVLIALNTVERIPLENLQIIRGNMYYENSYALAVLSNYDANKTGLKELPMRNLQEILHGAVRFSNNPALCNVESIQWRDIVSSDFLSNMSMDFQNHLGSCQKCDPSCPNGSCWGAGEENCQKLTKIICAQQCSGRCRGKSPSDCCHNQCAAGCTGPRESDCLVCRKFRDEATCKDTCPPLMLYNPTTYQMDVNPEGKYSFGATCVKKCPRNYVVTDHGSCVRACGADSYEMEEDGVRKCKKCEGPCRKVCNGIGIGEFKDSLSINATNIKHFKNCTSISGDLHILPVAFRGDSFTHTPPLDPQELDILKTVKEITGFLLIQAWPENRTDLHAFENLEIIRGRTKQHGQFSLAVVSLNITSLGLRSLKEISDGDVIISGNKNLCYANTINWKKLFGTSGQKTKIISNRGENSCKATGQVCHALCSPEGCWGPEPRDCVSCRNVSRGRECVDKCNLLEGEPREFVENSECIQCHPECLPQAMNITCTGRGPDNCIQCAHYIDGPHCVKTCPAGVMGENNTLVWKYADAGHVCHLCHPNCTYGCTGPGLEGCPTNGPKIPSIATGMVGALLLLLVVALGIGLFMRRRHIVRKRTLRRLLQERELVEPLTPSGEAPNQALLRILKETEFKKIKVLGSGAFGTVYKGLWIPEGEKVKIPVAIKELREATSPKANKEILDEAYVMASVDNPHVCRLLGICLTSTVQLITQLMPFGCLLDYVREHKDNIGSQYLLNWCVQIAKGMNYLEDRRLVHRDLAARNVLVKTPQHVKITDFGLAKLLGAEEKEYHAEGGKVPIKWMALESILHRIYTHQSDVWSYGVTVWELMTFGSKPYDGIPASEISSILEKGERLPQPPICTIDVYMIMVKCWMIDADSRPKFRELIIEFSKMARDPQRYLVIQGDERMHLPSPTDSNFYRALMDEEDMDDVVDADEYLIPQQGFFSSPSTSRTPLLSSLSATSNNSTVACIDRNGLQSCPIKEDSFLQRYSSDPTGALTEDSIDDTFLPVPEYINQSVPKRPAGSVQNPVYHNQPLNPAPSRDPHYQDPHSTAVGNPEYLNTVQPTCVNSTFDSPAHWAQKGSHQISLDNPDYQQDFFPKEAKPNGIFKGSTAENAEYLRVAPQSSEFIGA
T1 sequence (P01133 971-1023 partner limits assumed): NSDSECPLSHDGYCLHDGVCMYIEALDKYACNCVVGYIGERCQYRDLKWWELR
Method: A-431 cells were grown to confluence using Dulbecco's modified Eagle's medium (DMEM) containing 5% fetal calf serum (FCS). The obtained cells were homogenised in a hypotonic borate/EDTA buffer at pH 10.1. The homogenate was centrifuged at 400 g for 10 minutes at 0°-4° C. The supernatant was centrifuged at 25,000 g for 30 minutes at 0°-4° C. The pelleted material was suspended in 30 mM Hepes buffer at pH 7.4 containing 5% glycerol, 4 mM benzamidine and 1% Triton X-100, stirred for 1 hour at 0°-4° C., and recentrifuged at 100,000 g for 1 hour at 0°-4° C. The supernatant, containing solubilised receptor tyrosine kinase, was stored in liquid nitrogen.
For test purposes 40 μl of the enzyme solution so obtained was added to a mixture of 400 μl of a mixture of 150 mM Hepes buffer at pH 7.4, 500 μM sodium orthovanadate, 0.1% Triton X-100, 10% glycerol, 200 μl water, 80 μl of 25 mM DTT and 80 μl of a mixture of 12.5 mM manganese chloride, 125 mM magnesium chloride and distilled water. There was thus obtained the test enzyme solution. […]
The test compound/EGF mixture solution (5 μl) was added to the test enzyme solution (10 μl) and the mixture was incubated at 0°-4° C. for 30 minutes. […] Radioactivity present in the filter paper was measured using a liquid scintillation counter (Sequence A). […]
Receptor tyrosine kinase inhibition was calculated as follows: [formula]

[1] = test system: carcinoma which does not express EGF receptor tyrosine kinase; conditions: Toi et al., 1990; cited from earlier work
[2] = test system: human mammary carcinoma which expresses epidermal growth factor (EGF) receptor tyrosine kinase; conditions: athymic nude mice; Toi et al., 1990; cited from earlier work
[3] = male rats, usually oral, TGFα 400 μg/kg subcutaneously, BrdU uptake

Row | Molecule | IC50 (KB cells; EGF (10 ng/ml), 3 days, MTT) [nM] | ED50 (liver hepatocyte growth; [3]) [mg/kg] | IC50 (receptor tyrosine kinase) [nM] | other results
1 | COc1cc2ncnc(Nc3ccc4c(c3)CCC4)c2cc1OC [6,7-dimethoxy-4-(5-indanylamino)quinazoline] |  |  |  | IC50 (KB cells): 650 nM; ED50 (liver hepatocyte growth; po): 1 to 5 mg/kg
2 | COc1cc2ncnc(Nc3ccc4[nH]ccc4c3)c2cc1OC [6,7-dimethoxy-4-(5-indolylamino)quinazoline] | 400 | 1 to 5 | 1 | 
3 | COc1cc2ncnc(Nc3cccc4ncccc34)c2cc1OC [6,7-dimethoxy-4-(5-quinolylamino)quinazoline] | 1800 | ~2 | 60 | 
4 | O=CN/C=C/c1cc(O)ccc1O [erbstatin] |  |  |  | effect on growth of another carcinoma which does not express EGF receptor tyrosine kinase [1]: without effect; effect on growth of transplanted human mammary carcinoma expressing EGF receptor tyrosine kinase [2]: specifically attenuates the growth
5 | TGFα: the growth factor TGFα [reference compound] |  |  |  | stimulation of liver hepatocyte growth (liver hepatocyte growth; control group of rats, TGFα 400 μg/kg subcutaneously, on average): 5 fold
